Results on five compounds are retold here after patent publication EP0210351A2, “Use of porphyrin derivatives in the detection and treatment of tumours” (Nippon Petrochemicals Co., Ltd., priority 1985, dated 1987).

For test [1], the system named is SmT-F transplanted tumors. The test can be described thus: Photodynamic therapy of transplanted mouse tumors, necrotic/affected area by Evans Blue dye (Example 8). Particulars: 100 mg/kg iv, 24 hrs between drug dose and light, 200 mW/cm^2, 300 J/cm^2, wavelength nm: 2-acetyl 680, 2-formyl 690, chlorin e6 665, deutero 655, meso 652, necrotic/affected tumor area. The test is classed as in vivo, DBA/2 Ha Ros-d+Ha mice. On the procedure: The treatment and evaluation procedure is as follows: • DBA/2 Ha Ros-d+Ha mice with SmT-F transplanted tumors either in the exterior part of the hind leg or the side of the mouse were injected intravenously via the external jugular or intraperitoneally with the photosensitizing drug. At the specified time after injection, the area over the tumor was shaved and the light treatment begun.
Light from a Cooper Aurora argon pumped tunable dye laser was administered via a micro lens system (developed by Dr. Daniel Doiron, D,R.D. Consulting, Santa Barbara, California) coupled through a quartz fiber to the laser. The optical properties of the lens are such that the light exits the lens in a circular pattern with homogenous intensity throughout the lighted area, The diameter of the lighted area is a function of the distance from the lens,
The light intensity was measured with a Yellow Springs Instrument Model 65 A Radiometer at the point of treatment. A 1.5 cm diameter circle of the animal's skin, centered as closely as possible over the tumor, was irradiated in all the experiments. The intensity, wavelength, and dosage of light is included in the data for individual groups of animals. Wavelengths are adjusted, using a Hartridge reversion spectroscope to within 1 nm of the stated value.
Twenty four hours after light treatment, each mouse received 5 mg of Evans Blue Dye intravenously (1). After an additional two hours, the mice were sacrificed and the tumors were sectioned vertically through the center of the light treated area. Unaffected tumor was stained blue as was unaffected normal tissue. Necrotic or affected areas were white or red in appearance. Measurements on both the whole tumors and affected areas of the tumors were made vertically and horizontally with calipers to the nearest one half millimeter.

The test system of a further test is Morris Hepatoma 7777. The test can be described thus: Photodynamic therapy, depth of tumor necrosis by Evans Blue method (Example 6). Format: in vivo, Buffalo rats. Particulars: Tumor 7777; 20 Joules/cm^2; drug dose 20 mg/kg intravenously; 24 hrs between drug and light; 665 nm; 100 mW/cm^2; n=3. How it is done: The phtotdynamic therapy experiments have been carried out on Buffalo rats, using the transplantable tumor, Morris Hepatoma 7777. The tumors were transplanted subcutaneously on the outside of the thigh. During treatment, the tumors ranged in size between 1 and 2.5 cm in diameter.
The general treatment regime is as follows. The rats are injected with a solution of the chlorin prepared as follows: 20mg of the sodium salt of the chlorin was dissolved in 1 ml of 0.9% NaCl. The chlorin solution was then injected intravenously through the external jugular while the rat was anesthetized with ether. The volume of solution injected was calculated based upon the weight of the animal and the dosage, on a weight to weight basis, for the particular experiment. […]
The lens disperses the laser beam, providing a circular distribution of light with homogenous light intensity throughout the area of the incident light beam. […] The light intensity was determined using a Yellow Springs Instrument, Model 65A, radiometer. […]
Subsequent to illumination, the animal was returned to its cage and, 24 hours later, it was treated intravenously in the external jugular vein with 14 mg of Evans Blue dye, dissolved in 250 ul of 0.9% NaCl. […] The extent of tumor necrosis was assessed by the lack of dye uptake, and the depth of the necrotic cross section of the tumor was recorded in millimeters. […]

The test system of test [2] is Morris Hepatoma 7777 tumors. The test can be described thus: Photodynamic therapy, chlorin e6 compared with Photofrin II, tumor necrosis by Evans Blue dye (Example 7). The test is classed as in vivo, Buffalo rats. To be noted: 19 tumors treated; 20mg/kg intravenously; light 24 hours later; 665 nanometer; 100 mw/cm^2; 20 joules/cm^2. On the procedure: Male Buffalo rats (approximately 200g each), with transplanted subcutaneous Morris Hepatoma 7777 tumors on the exterior portion of the hind legs were injected intravenously via the exterior jugular with chlorin-e6 or Photofrin II, ^(2) at a dosage of 20mg/kg. Twenty four hours later, the areas over the tumors were shaved and the light treatment was begun.
Light from a Cooper Aurora argon pumped tunable dye laser was administered via a micro lens system (developed by Dr. Daniel Doiron, D.R.D. Consulting, Santa Barbara, California) coupled through a quartz fiber to the laser. The optical properties of the lens are such that the light exits the lens in a circular pattern with a homogenous intensity throughout the lighted area. The diameter of the lighted area is a function of its distance from the lens.
The light intensity was measured with a Yellow Springs Instrument Model 65A Radiometer at the point of treatment. […] Photofrin II rats were treated with 630 nanometer light in accordance with the preponderance of photodynamic therapy experiments described in the literature, using this drug, and its forerunner HPD or Photofrin I. The wavelengths of light were determined with the aid of a Hartridge reversion spectroscope to within one nanometer. […]
Nineteen tumors were evaluated for Chlorin e6 and light effect while twenty two tumors were assessed for Photofrin II and light effect.

As for `CCC1=C(C)c2cc3[nH]c(cc4nc(c(CC(=O)O)c5[nH]c(cc1n2)c(C)c5C(=O)O)C(CCC(=O)O)C4C)c(C)c3C=O` (stereo not shown) [2-formyl chlorin e6, 2-Desvinyl-2-FormylChlorin e6], in test [1], the “X̄ ± s.d. (cm)” value amounted to 0.33±0.12 cm and the range cm is 0.20-0.45 cm.

In the case of `CCC1=C(C)c2cc3[nH]c(cc4nc(c(CC(=O)O)c5[nH]c(cc1n2)c(C)c5C(=O)O)C(CCC(=O)O)C4C)c(C)c3CC` (stereo not shown) [mesochlorin e6, Mesochlorin e6], in test [1], the “X̄ ± s.d. (cm)” value stood at 0.06±0.08 cm and the range cm is 0.00-0.15 cm.

On to `C=Cc1c(C)c2cc3nc(c(CC(=O)O)c4[nH]c(cc5nc(cc1[nH]2)C(C)=C5CC)c(C)c4C(=O)O)[C@@H](CCC(=O)O)[C@@H]3C` [Chlorin e6], for which, in the test on Morris Hepatoma 7777, the “Range mm: range of depth of necrosis within the group” value was 3.5-5 mm and the “x̄ s.d.(n): mean depth of necrosis of the tumor tissue” value is given as 4.5±0.9 (3) mm. Moreover, the “number of tumors developing necrosis following treatment” value in test [2] is reported as 17. Moreover, in test [1], the “X̄ ± s.d. (cm)” value is given as 0.26±0.05 cm and the range cm was 0.20-0.35 cm.

With `CCC1=C(C)c2cc3[nH]c(cc4nc(c(CC(=O)O)c5[nH]c(cc1n2)c(C)c5C(=O)O)C(CCC(=O)O)C4C)c(C)c3C(C)=O` (stereo not shown) [2-acetyl chlorin e6], in test [1], the “X̄ ± s.d. (cm)” value worked out at 0.04±0.08 cm and the range cm was 0.00-0.15 cm.

For the compound `CCC1=C(C)c2cc3cc(C)c(cc4nc(c(CC(=O)O)c5[nH]c(cc1n2)c(C)c5C(=O)O)C(CCC(=O)O)C4C)[nH]3` (stereo not shown) [deuterochlorin e6, Deuterochlorin e6], in test [1], the “X̄ ± s.d. (cm)” value is 0.59±0.07 cm and the range cm is recorded as 0.50-0.70 cm.
